Assay results as given in article PMC8881512 (Nature Communications, 2022).
Several values for one entry are separate records, joined by “and”; a condition that tells them apart may be missing. Equal values may be shown once.

Assays:
MCF-7 cells [1] = test: Cell proliferation by cell counting, MCF-7; assay type: cell-based, human; conditions: for Fold change of cell proliferation: 4OHT (0.5 μM), Fig.6f; for Cell proliferation (cell counting): 1 μM Entinostat for 4 days, Fig.1p
Method: Cell proliferation rates were determined by automated cell counter. In brief, cells were plated at density of 0.1 million cells per well in six-well plate. Cell numbers were counted by the indicated time point as stated in the figure legends.

MCF-7 cells [2] = test: Colony-formation assay, MCF-7 (wild-type and ESR1 knock-in); assay type: cell-based, human; conditions: for Relative colony formation: 1 μM 4OHT, 0.2 μM Fulvestrant, 2 μM VT02956, 2 μM VT02484, Fig.6g
Method: […] The drugs were refreshed every 2–4 days. The colonies were then fixed with 4% paraformaldehyde for 15 min and stained with 0.1% crystal violet in 20% methanol solution for quantification.

T47D cells = test: Colony-formation assay, T47D (wild-type and ESR1 knock-in); assay type: cell-based; conditions: 1 μM 4OHT, 0.2 μM Fulvestrant, 2 μM VT02956, 2 μM VT02484, 14 days, Fig.6h
Method: For colony formation, cells were plated into 12-well plate with a constant density at the start date of treatment in triplicate with the indicated compounds and further cultured for 10 days (MCF-7) or 14 days (T47D). The drugs were refreshed every 2–4 days. The colonies were then fixed with 4% paraformaldehyde for 15 min and stained with 0.1% crystal violet in 20% methanol solution for quantification.

[3] = tested on: ER+ breast tumour organoids (BTO-02); test: 3D organoids drug response assay (CellTiter-Glo 3D); assay type: cell-based, human; conditions: BTO-02; 12 days treatment with 0.2 µM Fulvestrant or 1 µM Tamoxifen; Fig.s6p
Method: Breast tumour organoids were dissociated into single cells using TrypLE Express and counted with automated cell counter. Subsequently, 1000 cells were mixed in 10 μl BME type 2, seeded onto 96-well plate in triplicate and overlaid with 100 μl BC organoid medium (BOM) after BME gelation. Three days after organoids sphere formation, medium was removed and replaced by 100 μl of complete medium containing VT02956 (0, 0.04, 0.2, 1, 5 μM) or vehicle (DMSO). The drug-containing medium was refreshed every 3 days for additional 3–4 times. At the end of the treatment, the effect of the drugs on the tumour organoids, in terms of the organoids cell growth, was assayed with CellTiter-Glo 3D (Promega) according to the manufacturer’s instructions and were normalised to vehicle controls (0.5% DMSO content). The IC50 values was calculated in GraphPad Prism 8.

[4] = tested on: YAP/TAZ target, ESR1 and ERα target gene mRNA in BTO-02; test: qPCR gene expression in breast tumour organoids BTO-02; assay type: cell-based, human; conditions: BTO-02 starved for E2 for 3 days, then 100 nM E2 for 2 hours; Fig.s6o;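 further: relative mRNA abundance computed by the ΔCt approach from SYBR-based real-time qPCR, with GAPDH as internal housekeeping reference for normalisation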
[5] = tested on: VGLL3, ESR1, YAP/TAZ target and ERα target gene mRNA in MCF-7 cells; test: qPCR gene expression in MCF-7 cells; conditions: 1 μM Entinostat for 24 h, Fig.1o;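 further: SYBR Green real-time PCR, mRNA abundance computed by the ΔCt approach with GAPDH transcript as the internal normalisation control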
[6] = tested on: contact between ESR1 promoter and super enhancer locus; test: 3C library targeted bait qPCR (3C-qPCR); assay type: cell-based, human; conditions: MCF-7 LATS1/2 dKO + 1 µM VT107 for 2 days; relative to Parental; Fig.s5f
Method: The 3C templates were generated by combining the protocols of 3C[40] with in-situ Hi-C[41]. Briefly, 10 million cells were collected, and the cell pellet was resuspended in DPBS with formaldehyde added at a final concentration of 1% at room temperature for 10 min. […] The nuclei were further washed once by in-situ lysis buffer and resuspended in 50 μl 0.5% SDS solution at 62 °C for exactly 10 min. The SDS was then neutralised by adding 145 μl H2O and 25 μl 10% Triton X-100 at 37 °C for 15 min. After adding 100 U DpnII (NEB, #R0543) with the presence of 1x NBEuffer 3.1, the restriction enzyme digestion was conducted in a thermomixer overnight at 37 °C. The restriction enzyme was then heat inactivated by incubating at 65 °C for 20 minutes. Then the digested chromatin was re-ligated by adding 900 μl Ligation Master Mix (1.3x NEB T4 Ligase Buffer, 1.1% X-100, 0.05% BSA and 2 U/μl T4 ligase) and incubated overnight at 16 °C with constant rotation. […] The 3C DNA was then purified with phenol-chloroform, precipitated and washed in 70% ethanol, and resuspend in Elution Buffer (1 mM Tris-HCl pH 8.0, 0.1 mM EDTA) and quantified with Nanodrop. […] Library concentration was measured with Qubit sdDNA HS Assay Kit and further qualified with Tapestation. […] After sequencing quality control with FastQC and trimming of adaptor sequence with Trim Galore, reads were processed in accordance with the Umi4C pipeline.

[7] = tested on: ERα, YAP/TAZ phosphorylation in MCF-7 cells; test: Immunoblot analysis, MCF-7 cells; assay type: cell-based, human; conditions: WT or LATS1/2 dKO MCF-7; 1 µM of VT-107 for 2 days; Supplementary Fig. 4k
TEAD-VGLL3-NCOR2 complex = molecular target: T1, TEAD-VGLL3-NCOR2 complex (Homo sapiens, UniProt Q15562); test: TEAD2 co-immunoprecipitation with NCOR2 / VGLL3; assay type: cell-based; conditions: MCF7 transfected cells; Fig. 2n
T1 construct: expressed in transfected cells; host or cells: MCF-7
Method: For immunoprecipitations, cells were rinsed with ice-cold DPBS and then lysed in mild lysis buffer (150 mM NaCl, 50 mM Tris-Cl pH7.5, 0.5% Triton X-100) with protease inhibitors (Roche, #11873580001) and phosphatase inhibitors (Thermo Scientific, #88667) on ice for 30 min and centrifuged at 12,000 rpm for 10 min. Primary antibodies and Protein A/G magnetic beads (Pierce, #88803) were added to the supernatants and incubated with rotation for 3 h at 4 °C. Immunoprecipitants were washed four times with lysis buffer and were denatured by SDS-PAGE sample buffer and boiled for 5 min.

T1 sequence (Q15562 whole entry, one chain of several): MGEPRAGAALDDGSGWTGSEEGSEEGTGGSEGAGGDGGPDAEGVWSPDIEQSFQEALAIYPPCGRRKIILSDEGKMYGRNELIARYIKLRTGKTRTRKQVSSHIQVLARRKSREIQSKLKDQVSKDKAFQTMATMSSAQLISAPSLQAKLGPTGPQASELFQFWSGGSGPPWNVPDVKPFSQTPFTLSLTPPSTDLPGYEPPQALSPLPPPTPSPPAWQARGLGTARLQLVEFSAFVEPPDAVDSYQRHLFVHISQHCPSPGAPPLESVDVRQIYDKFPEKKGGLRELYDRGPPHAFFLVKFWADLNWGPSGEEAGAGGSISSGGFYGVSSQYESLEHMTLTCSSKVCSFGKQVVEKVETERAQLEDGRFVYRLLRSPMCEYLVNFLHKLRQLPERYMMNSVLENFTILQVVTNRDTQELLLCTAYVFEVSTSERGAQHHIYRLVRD

For `CC/C(=C(\c1ccc(O)cc1)c1ccc(OCCN(C)C)cc1)c1ccccc1` [4OHT, 4-Hydroxytamoxifen, reference compound], the “Fold change of cell proliferation” value (MCF-7 cells [1]; MCF-7 ERα-Y537S knock-in + ctrl) was 1.082 and 1.041 and 1.122, the “Fold change of cell proliferation” value (MCF-7 cells [1]; MCF-7 ERα-Y537S knock-in + sgLATS1/2) was 0.2796 and 0.349 and 0.2955 and the “Fold change of cell proliferation” value (MCF-7 cells [1]; MCF-7 wt + ctrl) was 0.5306 and 0.5714 and 0.5918. For the same compound, the “Fold change of cell proliferation” value (MCF-7 cells [1]; MCF-7 wt + sgLATS1/2) was 0.2041 and 0.1918 and 0.1796, the Relative colony formation (MCF-7 cells [2]; MCF-7 ERa D538G knock-in) was 0.71 and 0.61 and 0.66 and the Relative colony formation (MCF-7 cells [2]; MCF-7 ERa Y537S knock-in) was 0.79 and 0.83 and 0.77. The Relative colony formation (MCF-7 cells [2]; MCF-7 WT) was 0.38 and 0.41 and 0.34, the Relative colony formation (T47D cells; T47D ERa Y537S knock-in) was 0.79 and 0.83 and 0.77 and the Relative colony formation (T47D cells; T47D WT) was 0.41 and 0.38 and 0.44.

In the case of `CC/C(=C(\c1ccccc1)c1ccc(OCCN(C)C)cc1)c1ccccc1` [Tamoxifen], the “Rel. growth (BTO-02, %)” value [3] is reported as 55.442% and 49.15% and 52.381%.

`C[C@]12CC[C@@H]3c4ccc(O)cc4C[C@@H](CCCCCCCCC[S+]([O-])CCCC(F)(F)C(F)(F)F)[C@H]3[C@@H]1CC[C@@H]2O` (stereo partly drawn) [Fulvestrant, reference compound] was tested, and the Relative colony formation (MCF-7 cells [2]; MCF-7 ERa D538G knock-in) was 0.58 and 0.62 and 0.53, the Relative colony formation (MCF-7 cells [2]; MCF-7 ERa Y537S knock-in) was 0.68 and 0.73 and 0.65 and the Relative colony formation (MCF-7 cells [2]; MCF-7 WT) was 0.31 and 0.26 and 0.32. For the same compound, the Relative colony formation (T47D cells; T47D ERa Y537S knock-in) was 0.68 and 0.73 and 0.65, the Relative colony formation (T47D cells; T47D WT) was 0.38 and 0.35 and 0.32 and the “Rel. growth (BTO-02, %)” value [3] was 43.197% and 36.224% and 48.81%.

With `C[C@]12CC[C@@H]3c4ccc(O)cc4CC[C@H]3[C@@H]1CC[C@@H]2O` [E2, 17β-estradiol, reference compound] the “GREB1 Rel. expression (BTO-02)” value [4] was 4.976 and 4.601 and 4.355 and the “TFF1 Rel. expression (BTO-02)” value [4] was 6.504 and 6.591 and 6.279.

`Nc1ccccc1NC(=O)c1ccc(CNC(=O)OCc2cccnc2)cc1` [Entinostat, reference compound] was tested, and the “Cell proliferation (cell counting)” value (MCF-7 cells [1]; VGLL3 KO MCF-7) was 10.42 and 9.55 and 11.21, the “Cell proliferation (cell counting)” value (MCF-7 cells [1]; Wild-type MCF-7) was 4.59 and 3.87 and 4.88 and the “ESR1 expression (qPCR)” value ([5]; VGLL3 KO MCF-7) was 0.5015 and 0.486 and 0.4463. The “ESR1 expression (qPCR)” value ([5]; Wild-type MCF-7) was 0.07832 and 0.08939 and 0.1138.

For `CC(=O)c1c(C)c2cnc(Nc3ccc(N4CCNCC4)cn3)nc2n(C2CCCC2)c1=O` [Palbociclib, reference compound], the “MCF-7 growth, palbociclib combined with LATS1/2 depletion” value (MCF-7 cells [1]; LATS1/2 deficient MCF-7, Palbociclib 0.1 or 0.3 µM for 7 days, Supplementary Fig. 8i) was “dramatically reduced MCF-7 growth” and the “Rel. colony (colony-formation assay)” value (MCF-7 cells [2]; MCF-7, VT02956 (2 μM), VT02484 (2 μM) or Palbociclib (0.1 μM) alone or in combinations, Fig.6d) was 0.58 and 0.54 and 0.51.

With VT-107 the “Rel. Contact (3C-qPCR) between ESR1 promoter and super enhancer” value [6] was 0.5958 and 0.5632 and 0.5017, the “ERα level (immunoblot)” value [7] was “ameliorated the ERα downregulation caused by LATS1/2 dKO” and the “TEAD2 Co-IP with VGLL3 / NCOR2” value (TEAD-VGLL3-NCOR2 complex) was “disrupted the interaction of TEAD with either VGLL3 or NCOR2”.
